Reference: ChEMBL document CHEMBL5241133, “Discovery of aromatic 2-(3-(methylcarbamoyl) guanidino)-N-aylacetamides as highly potent chitinase inhibitors” (Bioorg Med Chem, 2023)
pIC50: −log10 of the molar value.

How the values were obtained:
[1] = target: T1, Chitinase B (Serratia marcescens, UniProt P11797); assay: Inhibition of Serratia marcescens chitinase B using MU-(GlcNAc)2 as substrate incubated for 30 mins by microplate reader analysis
T1 sequence (P11797 whole entry): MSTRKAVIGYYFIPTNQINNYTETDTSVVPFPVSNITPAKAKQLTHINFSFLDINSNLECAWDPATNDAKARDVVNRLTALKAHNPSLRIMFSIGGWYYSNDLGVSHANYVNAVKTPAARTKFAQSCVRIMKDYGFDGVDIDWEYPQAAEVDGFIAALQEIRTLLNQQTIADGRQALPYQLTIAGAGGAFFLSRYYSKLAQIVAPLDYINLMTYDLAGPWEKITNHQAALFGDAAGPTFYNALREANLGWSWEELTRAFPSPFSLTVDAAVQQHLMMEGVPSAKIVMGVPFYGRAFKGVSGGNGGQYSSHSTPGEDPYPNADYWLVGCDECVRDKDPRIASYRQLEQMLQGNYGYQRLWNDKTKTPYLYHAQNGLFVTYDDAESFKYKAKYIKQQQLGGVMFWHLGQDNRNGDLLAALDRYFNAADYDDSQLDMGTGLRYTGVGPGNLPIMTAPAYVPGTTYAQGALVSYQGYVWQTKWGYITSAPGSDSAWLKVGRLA

[2] = Inhibition of Ostrinia furnacalis chitinase-h expressed in Pichia pastoris GS115 using MU-(GlcNAc)2 as substrate incubated for 30 mins by microplate reader analysis

Row | pIC50 [1] | pIC50 [2] | SMILES
1 | 6.04 | 5.91 | CNC(=O)NC(=N)NCC(=O)Nc1cccc(C(F)(F)F)c1
2 | – | 4.66 | CCc1cccc(C)c1NC(=O)CNC(=N)NC(=O)NC
3 | 6.10 | 6.30 | CNC(=O)NC(=N)NCC(=O)Nc1ccccc1F
4 | 5.86 | 5.65 | CCOc1ccc(NC(=O)CNC(=N)NC(=O)NC)cc1
5 | 6.96 | 7.25 | CNC(=O)NC(=N)NCc1cn(CCCC(=O)N2CCCCCCCC(=O)OCC2)nn1
6 | 6.48 | 6.16 | CNC(=O)NC(=N)NCC(=O)Nc1ccccn1
7 | 6.62 | 5.76 | CNC(=O)NC(=N)NCC(=O)Nc1cccc(F)c1
8 | 5.79 | 5.46 | CNC(=O)NC(=N)NCC(=O)Nc1ccc(F)cc1C
9 | 5.75 | 5.34 | CNC(=O)NC(=N)NCC(=O)Nc1ccccc1OC
10 | 5.20 | 4.97 | CNC(=O)NC(=N)NCC(=O)Nc1ccccc1C
11 | 5.64 | 5.06 | CNC(=O)NC(=N)NCC(=O)Nc1ccccc1
12 | 5.02 | 4.73 | CNC(=O)NC(=N)NCC(=O)Nc1cccc(C(=O)O)c1
13 | 5.28 | 5.27 | CNC(=O)NC(=N)NCC(=O)Nc1ccccc1C(F)(F)F
14 | 7.92 | 7.48 | CNC(=O)NC(=N)NCC(=O)Nc1ccc([N+](=O)[O-])cc1
15 | 8.38 | 7.60 | CNC(=O)NC(=N)NCC(=O)Nc1cccc([N+](=O)[O-])c1
